Source: publication PMC3602246 (BMC Pharmacology & Toxicology, 2013)
“Also recorded” adds a separate entry of the source. Where two headings read alike, the source gives them in different places.

Assays:
MOR = conditions: cited from earlier work; for Ki: read-out: Ki, affinity binding to the MOR
[1] = target: T1, human mu opioid receptor (MOR1) (Homo sapiens, UniProt P35372); type: cell-based
T1 construct: FLAG; expressed in transfected cells

[2] = target: T2, human kappa opioid receptor (Homo sapiens, UniProt P41145); type: cell-based
T2 construct: FLAG; expressed in transfected cells

DOR = conditions: cited from earlier work; for Ki: read-out: Ki, affinity binding to the DOR
KOR = conditions: cited from earlier work; for Ki: read-out: Ki, affinity binding to the KOR
[3] = target: T2, human kappa opioid receptor; type: cell-based; conditions: read-out: IC50, single phase inhibition of BRL-52537 DMR
[4] = target: T2, human kappa opioid receptor; type: cell-based; remark: listed apart in the source
[5] = target: T1, human mu opioid receptor (MOR1); type: cell-based; conditions: HEK-MOR; ligand 10 μM, 1 hr; DAMGO 10 μM
[6] = read-out: EC50, first phase of biphasic DMR dose response
[7] = read-out: EC50, second phase of biphasic DMR dose response

T1 sequence (P35372 whole entry): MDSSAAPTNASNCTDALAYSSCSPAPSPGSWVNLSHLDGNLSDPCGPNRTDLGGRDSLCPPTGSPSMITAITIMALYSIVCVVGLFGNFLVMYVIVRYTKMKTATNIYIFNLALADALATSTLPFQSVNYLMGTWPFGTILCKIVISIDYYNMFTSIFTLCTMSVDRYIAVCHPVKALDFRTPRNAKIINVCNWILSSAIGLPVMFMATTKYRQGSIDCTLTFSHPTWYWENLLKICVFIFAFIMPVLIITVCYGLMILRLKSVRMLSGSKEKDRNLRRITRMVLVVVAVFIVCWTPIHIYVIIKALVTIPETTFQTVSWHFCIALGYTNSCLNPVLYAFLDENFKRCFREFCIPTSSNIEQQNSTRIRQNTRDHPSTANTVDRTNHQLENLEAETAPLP
T2 sequence (P41145 whole entry): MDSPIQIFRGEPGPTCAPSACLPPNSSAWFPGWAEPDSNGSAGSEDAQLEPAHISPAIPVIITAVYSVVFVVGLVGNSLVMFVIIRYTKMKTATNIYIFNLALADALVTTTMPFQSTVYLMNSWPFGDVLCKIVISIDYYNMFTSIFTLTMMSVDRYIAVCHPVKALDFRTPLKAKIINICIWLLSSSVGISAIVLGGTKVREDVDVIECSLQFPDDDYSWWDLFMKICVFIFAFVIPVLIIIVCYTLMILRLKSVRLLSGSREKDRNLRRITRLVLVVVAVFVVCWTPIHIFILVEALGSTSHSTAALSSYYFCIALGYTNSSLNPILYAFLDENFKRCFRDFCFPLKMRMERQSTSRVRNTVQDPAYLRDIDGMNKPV

Molecule	Ki (MOR)	Ki (DOR)	Ki (KOR)	other results
COc1ccc2c3c1O[C@H]1[C@@H](O)C=C[C@H]4[C@@H](C2)NCC[C@@]341 [(−)-Norcodeine]	267 nM	–	–	–
O=C1/C(=C/c2ccccc2)C[C@@]2(O)[C@H]3Cc4ccc(O)c5c4[C@@]2(CCN3CC2CC2)[C@H]1O5 [BNTX]	18 nM	0.66 nM	55 nM	DMR agonist activity classification, MOR [1]: off-target; DMR agonist activity classification, KOR [2]: off-target
O=C(Cc1ccc(Cl)c(Cl)c1)N1CCCCC1CN1CCCC1 (stereo not drawn) [BRL-52537]	1560 nM	–	0.24 nM	DMR agonist activity classification, KOR [2]: Full agonist; DMR response at 9 min poststimulation [2]: 213±21 pm; saturable DMR amplitude, first phase of biphasic dose response [2]: 120±6 pm; saturable DMR amplitude, second phase of biphasic dose response [2]: 207±13 pm; EC50 [2, 6]: 0.0356 ± 0.0031 nM; EC50 [2, 7]: 26 ± 1.9 nM; IC50 [3]: 4.1 ± 0.23 nM; ligand DMR in PTX-pretreated cells [4]: detectable P-DMR
C[C@@H](NC(=O)[C@@H](N)Cc1ccc(O)cc1)C(=O)NCC(=O)N(C)[C@@H](Cc1ccccc1)C(=O)NCCO [DAMGO]	–	–	> 20000 nM	DMR agonist activity classification, MOR [1]: Full agonist; DMR response at 9 min poststimulation [1]: 240±17 pm; saturable DMR amplitude, first phase of biphasic dose response [2]: 139±6 pm; saturable DMR amplitude, second phase of biphasic dose response [2]: 200±8 pm
CN(C(=O)Cc1ccc(Cl)c(Cl)c1)[C@H](CN1CCCC1)c1cccc(N=C=S)c1 [DIPPA]	–	–	–	DMR agonist activity classification, KOR [2]: Full agonist; saturable DMR amplitude, first phase of biphasic dose response [2]: 138±8 pm; saturable DMR amplitude, second phase of biphasic dose response [2]: 205±9 pm; EC50 [2, 6]: 13.4 ± 1.5 nM; EC50 [2, 7]: 240 ± 11.2 nM; IC50 [3]: 455 ± 32.3 nM; ligand DMR in PTX-pretreated cells [4]: detectable P-DMR; IC50 (MOR; read-out: IC50, affinity binding to the MOR): 1800 nM; IC50 (DOR; read-out: IC50, affinity binding to the DOR): > 1000 nM; IC50 (KOR; read-out: IC50, affinity binding to the KOR): 2.21 nM
CC1(C)SSC(C)(C)[C@@H](NC(=O)[C@@H](N)Cc2ccc(O)cc2)C(=O)NCC(=O)N[C@@H](Cc2ccccc2)C(=O)N[C@H]1C(=O)O [DPDPE]	600 nM	–	12000 nM	–
NC(=O)[C@H](Cc1ccccc1)NC(=O)[C@H](Cc1c[nH]c2ccccc12)NC(=O)[C@@H]1CCCN1C(=O)[C@@H](N)Cc1ccc(O)cc1 [Endomorphin-1]	–	> 500 nM	–	–
NC(=O)[C@H](Cc1ccccc1)NC(=O)[C@H](Cc1ccccc1)NC(=O)[C@@H]1CCCN1C(=O)[C@@H](N)Cc1ccc(O)cc1 [Endomorphin-2]	0.43 nM	> 500 nM	–	–
COC(=O)N1CCN(C(=O)Cc2ccc(Cl)c(Cl)c2)C(CN2CCCC2)C1 (stereo not drawn) [GR 89696]	–	–	41.7 nM	DMR agonist activity classification, KOR [2]: Full agonist; ligand DMR in PTX-pretreated cells [4]: detectable P-DMR
CN(C(=O)Cc1ccc(Cl)c(Cl)c1)C(CN1CCCC1)c1cccc(OCC(=O)O)c1 (stereo not drawn) [ICI 204,448]	> 1000 nM	> 1000 nM	2.69 nM	–
C=CCN1CC[C@]23CCCC[C@H]2[C@H]1Cc1ccc(O)cc13 [Levallorphan]	1.7 nM	1 nM	0.3 nM	–
Oc1ccc2c3c1O[C@H]1c4c(c5ccccc5n4Cc4ccccc4)C[C@@]4(O)[C@@H](C2)N(CC2CC2)CC[C@]314 [N-Benzylnaltrindole]	–	–	–	blockage of the DAMGO response [5]: partial blockage; IC50 ratio at the MOR (MOR): 11.2; IC50 ratio at the DOR (DOR): 459; IC50 ratio at the KOR (KOR): 1.3
C=CC[N+]1(C)CC[C@]23c4c5ccc(O)c4O[C@H]2C(=O)CC[C@@]3(O)[C@H]1C5 (stereo partly drawn) [Naloxone methiodide]	28.9 nM	204 nM	1010 nM	blockage of the DAMGO response [5]: partial blockage
Oc1ccc2c3c1O[C@H]1c4oc5ccccc5c4C[C@@]4(O)[C@@H](C2)N(CC2CC2)CC[C@]314 [Naltriben]	80.8 nM	0.4 nM	> 10000 nM	blockage of the DAMGO response [5]: partial blockage
Oc1ccc2c3c1O[C@H]1c4[nH]c5ccccc5c4C[C@@]4(O)[C@@H](C2)N(CC2CC2)CC[C@]314 [Naltrindole]	–	–	–	blockage of the DAMGO response [5]: partial blockage
Oc1ccc2c3c1O[C@H]1c4[nH]c5c(c4C[C@@]4(O)[C@@H](C2)N(CC2CC2)CC[C@]314)C[C@@]1(O)[C@H]2Cc3ccc(O)c4c3[C@@]1(CCN2CC1CC1)[C@H]5O4 [Nor-Binaltorphimine]	–	–	–	blockage of the DAMGO response [5]: partial blockage; DMR under all eight assay conditions [4]: absence of any DMR; also recorded: did not trigger any DMR response under any conditions
C=CCN1CCC2(C)c3cc(O)ccc3CC1C2C (stereo not drawn) [SKF10047]	1900 nM	19000 nM	1600 nM	–
COC(=O)[C@@H]1C[C@H](OC(C)=O)C(=O)[C@H]2[C@@]1(C)CC[C@H]1C(=O)O[C@H](c3ccoc3)C[C@]21C [Salvinorin A]	–	–	–	DMR agonist activity classification, KOR [2]: Full agonist; ligand DMR in PTX-pretreated cells [4]: detectable P-DMR; EC50 (MOR; read-out: EC50 at the MOR): […]; EC50 (KOR; read-out: EC50 at the KOR): […]
COC(=O)/C=C/C(=O)N[C@@H]1CC[C@@]2(O)[C@H]3Cc4ccc(O)c5c4[C@@]2(CCN3CC2CC2)[C@H]1O5 [β-Funaltrexamine]	0.33 nM	48 nM	2.8 nM	–
(Met5)-Enkephalin	3 nM	2 nM	2.9 nM	–
DADLE	150 nM	0.63 nM	1900 nM	–
DSLET	120 nM	–	–	DMR agonist activity classification, MOR [1]: Full agonist
DTLET	–	22 nM	> 10000 nM	DMR agonist activity classification, MOR [1]: Full agonist
Deltorphin II	> 1000 nM	3.3 nM	> 1000 nM	–
Dynorphin A (1–8) (YGGFLRRI; Dynorphin A(1-8); UniProt P01213 207-214, looked up, fragment)	22.3 nM	32.6 nM	–	DMR agonist activity classification, MOR [1]: Full agonist
Dynorphin A (1–13)	31 nM	> 1000 nM	0.98 nM	–
Dynorphin A (2–13)	–	–	680 nM	–
Dynorphin B	–	12.8 nM	–	–
Nociceptin	270 nM	> 1000 nM	> 1000 nM	–
α-Neoendorphin (YGGFLRKYPK; Alpha-neoendorphin; UniProt P01213 175-184, looked up)	–	1.17 nM	1.4 nM	DMR agonist activity classification, KOR [2]: Full agonist; ligand DMR in PTX-pretreated cells [4]: detectable P-DMR
